Source: patent US10342796B2, “Acrylanilide derivative, preparation method, and applications thereof in pharmacy” (Ancureall Pharmaceutical (Shanghai) Co., Ltd., priority 2015, dated 2019)
Like-named read-outs stand apart in the source and are kept apart here.

Legend:
[1] = system: SW48 (EGFR G719S positive); experiment: Growth inhibition GI50 in vitro (CCK8/MTT, 72 h); assay type: cell-based; conditions: Homo sapiens
Description: PC-9ER is an acquired Erlotinib resistance cell line of PC-9 cells developed by the investor. […] The four cell lines above were cultured with 1×RPMI1640 complete medium (supplement with 10% FBS). Human colon cancer cell line SW48 (EGFR G719S positive, ATCC). was cultured with L15 complete medium (10% FB S).
The suspension cells were collected by centrifugation. The supernatant was discard and the cell pellet was resuspended and counted. Different cell concentrations (5˜10×10^4 cells/mL) were prepared according to the growth cycle of each cell line and then seeded on a 96-well plate (Corning), 100 μL/well. The cells were incubated over night at 37° C., 5% CO2. The compounds were added to the cells on the second day with 2 wells in parallel. The final concentration of organic solvent shall not exceed 1%. The cells were continually incubated for 72 h, and then subjected to MTT assay.
The present compounds and the reference compounds were dissolved with DMSO (Sigma), respectively. […] The storage concentration of compounds was 10 mM and kept at −20° C. They were diluted by 2 times or 10 times with serial dilution before using.
Dojindo CCK8 reagent kit was used as MTT assay. […] FC meter was used as microplate reader.
Adherent cell culture medium was discard and immediately replaced with fresh prepared medium which contains 10% CCK8 reagent (100 μL/well). For the suspension cells, CCK8 was directly added to 10% of the final concentration. The cells were continually incubated for 1˜4 h. When the color of control wells turned to dark yellow, the absorption value was measured at OD450 nm. The cell growth rate was calculated according to the following formula: cell growth rate (%)=100*(T−T0)/(C−T0), T=optical density of drug treatment cell well—optical density of blank control well; T0=optical density of cell well before drug treatment—optical density of blank control well; C=optical density of cell well of solvent control group—optical density of blank control well. […] The experiment was independently repeated 1˜3 times, and subject to biological statistical analysis.
Each compound started at 1000 nM as an initial concentration and was diluted by […] with serial dilution to 0.03 nM.

[2] = system: SNU1040 (HER2 V777M positive); experiment: Growth inhibition GI50 in vitro (CCK8/MTT, 72 h); assay type: cell-based; conditions: Homo sapiens, read-out: GI50 SNU-1040 (HER2 V777M)
[3] = Table 16, 1000 nM to 0.03 nM serial dilution

| Compound | GI50 [2, 3] [nM] | GI50 ([1]; SW48, Table 15, 1000 nM to 0.03 nM serial dilution, read-out: GI50 SW48 (EGFR G719S)) [nM] | GI50 ([1]; SW48, read-out: GI50 SW48 (EGFR G719S)) [nM] | GI50 [2] [nM] |
| --- | --- | --- | --- | --- |
| C=CC(=O)Nc1cc(Nc2nccc(-c3cn(C)c4ccccc34)n2)c(OC)cc1N(C)CCN(C)C [AZD9291, reference compound] |  |  | 156 | 156 |
| C=CC(=O)Nc1cc(Nc2nccc(-n3ccc4c(OC)cccc43)n2)c(OC)cc1N(C)CCN(C)C [Compound 99, N-(5-(4-(4-methoxyl-1H-indol-1-yl)-pyrimidin-2-ylamino)-2-(2-(dimethylamino-ethyl)-methyl-amino)-4-methoxyl-phenyl)-acrylamide] | 19.5 |  |  |  |
| C=CC(=O)Nc1cc(Nc2nccc(-n3ccc4c(OCCOC)cccc43)n2)c(OC)cc1N(C)CCN(C)C [Compound 205, N-(5-(4-(4-(2-methoxyl-ethoxyl)-1H-indol-1-yl)-pyrimidin-2-ylamino)-2-(2-(dimethylamino-ethyl)-methyl-amino)-4-methoxyl-phenyl)-acrylamide] | 14.3 |  |  |  |

The next lines start with results.

| GI50 [2, 3] [nM] | GI50 ([1]; SW48, Table 15, 1000 nM to 0.03 nM serial dilution, read-out: GI50 SW48 (EGFR G719S)) [nM] | Compound | GI50 ([1]; SW48, read-out: GI50 SW48 (EGFR G719S)) [nM] | GI50 [2] [nM] |
| --- | --- | --- | --- | --- |
| 16.2 |  | C=CC(=O)Nc1cc(Nc2cc(Nc3cc(OC)c(Cl)cc3Cl)ncn2)c(OC)cc1N(C)CCN(C)C [Compound 136, N-(5-(6-(2,4-dichloro-5-methoxyl-phenylamino)-pyrimidin-4-ylamino)-2-((2-dimethylamino-ethyl)-methyl-amino)-4-methoxyl-phenyl)-acrylamide] |  |  |
| 5.42 | 4.23 | C=CC(=O)Nc1cc(Nc2cc(Nc3cc(F)c(OC)c(Cl)c3)ncn2)c(OC)cc1N(C)CCN(C)C [Compound 236, N-(5-(6-(3-chloro-5-fluoro-4-methoxyphenylamino)-pyrimidin-4-yl-amino)-2-((2-dimethylamino-ethyl)-methyl-amino)-4-methoxyl-phenyl)-acrylamide] |  |  |
